Several values for one entry are separate records, joined by “and”; a condition that tells them apart may be missing. Identical values can stand only once.
Experiments:
[1] = xn = mol fraction of the nth substance listed; settings: 101 kPa, Liquid; for speed of sound: Linear variable-path acoustic interferometer; for mass density: Pycnometric method
[2] = 101 kPa, Liquid; for speed of sound: Linear variable-path acoustic interferometer; for mass density: Pycnometric method

Cc1cccc(N)c1 [3-methylaniline] + CC(C)OC(C)C
[1]
Settings | mass density, 303.15 K [kg/m3] | mass density, 313.15 K [kg/m3] | mass density, 323.15 K [kg/m3] | speed of sound, 303.15 K [m/s] | speed of sound, 313.15 K [m/s] | speed of sound, 323.15 K [m/s]
x2 = 0 | 980.8 | 972.7 | 964.6 | 1567 | 1533 | 1492
x2 = 0.0743 | 961 | 954.3 | 946.9 | 1515 | 1482 | 1443
x2 = 0.1546 | 939.9 | 934 | 927 | 1462 | 1429 | 1391
x2 = 0.2421 | 917.2 | 911.5 | 904.6 | 1404 | 1371 | 1334
x2 = 0.3279 | 894.6 | 888.9 | 881.9 | 1350 | 1315 | 1280
x2 = 0.4275 | 868 | 862.1 | 855 | 1289 | 1254 | 1218
x2 = 0.53 | 840 | 834 | 826.9 | 1230 | 1193 | 1158
x2 = 0.6285 | 812.7 | 806.4 | 799.4 | 1175 | 1138 | 1101
x2 = 0.7424 | 781.2 | 774.5 | 767 | 1113 | 1075 | 1036
x2 = 0.8651 | 747.8 | 740.1 | 731.6 | 1048 | 1007 | 966

CC(C)OC(C)C [diisopropyl ether] + Cc1ccccc1N
[1], x1 = 1
Settings | mass density [kg/m3] | speed of sound [m/s]
303.15 K | 712.9 | 976
313.15 K | 702.5 | 932
323.15 K | 691.9 | 889

CC(C)OC(C)C [diisopropyl ether]
[2]
Settings | mass density | speed of sound [m/s]
303.15 K | 712.9 kg/m3 | 976
313.15 K | 702.5 kg/m3 and 702.9 kg/m3 | 932
323.15 K | 691.9 kg/m3 | 889

Cc1cccc(N)c1 [3-methylaniline]
[2]
Settings | mass density [kg/m3] | speed of sound [m/s]
303.15 K | 980.8 | 1567
313.15 K | 972.7 | 1533
323.15 K | 964.6 | 1492

Cc1ccccc1N [2-methylaniline] + C1CCOC1
[1]
Settings | mass density, 303.15 K [kg/m3] | mass density, 313.15 K [kg/m3] | mass density, 323.15 K [kg/m3] | speed of sound, 303.15 K [m/s] | speed of sound, 313.15 K [m/s] | speed of sound, 323.15 K [m/s]
x2 = 0 | 990.1 | 981.7 | 973.3 | 1579 | 1539 | 1501
x2 = 0.0828 | 984 | 975.9 | 968 | 1559 | 1519 | 1482
x2 = 0.1818 | 977 | 969.2 | 961.5 | 1534 | 1493 | 1458
x2 = 0.2807 | 969.9 | 962.2 | 954.6 | 1508 | 1467 | 1431
x2 = 0.3704 | 962.6 | 954.9 | 947.3 | 1482 | 1442 | 1406
x2 = 0.4652 | 953.7 | 945.9 | 938.2 | 1455 | 1414 | 1377
x2 = 0.5732 | 941.7 | 933.8 | 925.9 | 1421 | 1379 | 1342
x2 = 0.6764 | 928.4 | 920.1 | 911.9 | 1382 | 1341 | 1305
x2 = 0.7791 | 913.3 | 904.7 | 896 | 1343 | 1301 | 1264
x2 = 0.888 | 895.8 | 886.4 | 877 | 1300 | 1255 | 1219

Cc1cccc(N)c1 [3-methylaniline] + C1CCOC1
[1]
Settings | mass density, 303.15 K [kg/m3] | mass density, 313.15 K [kg/m3] | mass density, 323.15 K [kg/m3] | speed of sound, 303.15 K [m/s] | speed of sound, 313.15 K [m/s] | speed of sound, 323.15 K [m/s]
x2 = 0 | 980.8 | 972.7 | 964.6 | 1567 | 1533 | 1492
x2 = 0.0864 | 975.3 | 968 | 960.1 | 1544 | 1513 | 1474
x2 = 0.1853 | 969.2 | 962.6 | 955 | 1522 | 1488 | 1451
x2 = 0.2831 | 963 | 956.4 | 948.9 | 1497 | 1463 | 1425
x2 = 0.3776 | 956.4 | 949.7 | 941.9 | 1472 | 1436 | 1398
x2 = 0.4693 | 949 | 942 | 933.9 | 1447 | 1409 | 1372
x2 = 0.5689 | 939.3 | 931.9 | 923.6 | 1416 | 1375 | 1339
x2 = 0.6803 | 926.2 | 918.4 | 909.8 | 1378 | 1338 | 1301
x2 = 0.7808 | 912.4 | 904.3 | 895.3 | 1341 | 1300 | 1261
x2 = 0.8886 | 895.6 | 886.8 | 877.2 | 1300 | 1255 | 1217

Cc1ccccc1N [2-methylaniline] + CC(C)OC(C)C
[1]
Settings | mass density, 303.15 K [kg/m3] | mass density, 313.15 K [kg/m3] | mass density, 323.15 K [kg/m3] | speed of sound, 303.15 K [m/s] | speed of sound, 313.15 K [m/s] | speed of sound, 323.15 K [m/s]
x2 = 0 | 990.1 | 981.7 | 973.3 | 1579 | 1539 | 1501
x2 = 0.0717 | 968.9 | 962.3 | 955.7 | 1530 | 1491 | 1457
x2 = 0.1513 | 946.3 | 940.3 | 934.4 | 1475 | 1437 | 1404
x2 = 0.2389 | 922 | 916.1 | 910.4 | 1415 | 1378 | 1343
x2 = 0.3255 | 898.8 | 892.6 | 886.4 | 1359 | 1320 | 1284
x2 = 0.4206 | 873.5 | 866.9 | 860.2 | 1299 | 1259 | 1224
x2 = 0.5248 | 845.6 | 838.8 | 831.6 | 1237 | 1197 | 1160
x2 = 0.625 | 817.9 | 811 | 803.6 | 1180 | 1139 | 1103
x2 = 0.7415 | 784.9 | 777.6 | 770 | 1116 | 1074 | 1038
x2 = 0.866 | 749.3 | 741 | 732.8 | 1049 | 1007 | 968

Cc1ccccc1N [2-methylaniline]
[2]
Settings | mass density [kg/m3] | speed of sound [m/s]
303.15 K | 990.1 | 1579
313.15 K | 981.7 | 1539
323.15 K | 973.3 | 1501

C1CCOC1 [tetrahydrofuran]
[2]
Settings | mass density [kg/m3] | speed of sound [m/s]
303.15 K | 876.9 | 1254
313.15 K | 865.7 | 1207
323.15 K | 854.8 | 1165

CC(C)OC(C)C [diisopropyl ether] + Cc1cccc(N)c1
[1], x1 = 1
Settings | mass density [kg/m3] | speed of sound [m/s]
303.15 K | 712.9 | 976
313.15 K | 702.9 | 932
323.15 K | 691.9 | 889

C1CCOC1 [tetrahydrofuran] + Cc1cccc(N)c1
[1], x1 = 1
Settings | mass density [kg/m3] | speed of sound [m/s]
303.15 K | 876.9 | 1254
313.15 K | 865.7 | 1207
323.15 K | 854.8 | 1165

C1CCOC1 [tetrahydrofuran] + Cc1ccccc1N
[1], x1 = 1
Settings | mass density [kg/m3] | speed of sound [m/s]
303.15 K | 876.9 | 1254
313.15 K | 865.7 | 1207
323.15 K | 854.8 | 1165

— the NIST ThermoML archive (doi:10.1016/j.tca.2011.01.019)
